The values below come from patent US7709526B2, “Use of cyclolignans and new cyclolignans” (Biovitrum AB, priority 2001, dated 2010).

Where two headings read alike, the source gives them in different places. Some results are limits rather than exact numbers.

For one data set, the system named is FM55 melanoma cells. The experiment in a line: Cell viability (XTT), FM55. It is filed as cell-based, human. Here is the method: (§1) Cell proliferation kit II (Roche Inc.) is based on calorimetric change of the yellow tetrazolium salt XTT in orange formazan dye by the respiratory chain of viable cells (Roehm, N W, et al., J Immunol Methods 142:257-265, 1991). Cells seeded at a concentration of 5000/well in 100 μl medium in a 96-well plate were treated with different drugs in the given concentration. After 24 or 48 h the cells were incubated, according to the manufacturer's protocol, with XTT labelling mixture. After 4 h the formazan dye is quantified using a scanning multiwell spectrophotometer with a 495-nm filter. The absorbance is directly correlated with number of viable cells. The standard absorbance curve was drawn by means of untreated cells seeded at a concentration of from 1000 to 10 000 cells/well with an increasing rate of 1000 cells/well. All standards and experiments were performed in triplicates.
5 different types of cell lines were seeded in 96-well plates (medium volume in a well was 100 μl), at a concentration of 10,000 cells/cm^2 in Minimal Essential Medium supplemented with fetal calf serum. When the cells had reached a concentration of 65,000 cells/cm^2, they were treated with different doses of podophyllotoxin and deoxypodophyllotoxin for 48 h. Cell viability was then assayed (see above). IC50 values for each inhibitor and cell line, calculated as the concentration, resulting in a 50% decrease in cell survival, are shown below. The results are based on 4 different experiments.
FM55 melanoma cells were cultured in the same way as described in Experiment 3 and were treated with different doses of podophyllotoxin analogues as described in Experiment 3.

Data set [1] relates to K562/S chronic myeloid leukemia cells. As to the kind of experiment: Viability of leukemia cells, K562/S. It is filed as cell-based, human. As to conditions: 72 h, read-out: IC50 for viability of leukemia cell lines. How it is done:
(§2) The human chronic myeloid leukemia K562/S and K562/Vcr30 lines and the acute myeloid leukemia cell lines HL60/0 and HL60/Nov were obtained from ATCC. The K562/S and HL60/0 are wild type (non-resistant) cells, whereas K562/Vcr30 and HL60/Nov are cytostatic-resistant sublines. All leukemia cell lines were cultured in RPMI 1640 medium supplemented with 10% fetal bovine serum and with 2 mM glutamine, 1% benzyl-penicillin and streptomycin. The cells were grown in tissue culture flasks maintained at 95% air/5% CO2 atmosphere at 37° C. in a humidified incubator. For the experiments 25,000 cells were cultured in 60-mm plastic dishes or 96-well plastic plates. The experiments on leukemia cells were performed in collaboration with Associate professor Sigurd Vitols, Department of Pharmacology, Karolinska Hospital (Stockholm, Sweden).
as §1
(§3) The leukemia cell lines K562/S, K562/Vcr 30, HL60/0 and HL60/Nov were proven to express the IGF-1R. This was assayed by Western blotting analysis, as described in Methods and Experiment 1 and 2. The 4 leukemia cell lines were seeded in 96-well plates (medium volume in a well was 100 μl), in RPMI40 medium supplemented with fetal calf serum. After 24 h podophyllotoxin, deoxypodophyllotoxin and other derivatives were added at different concentrations for 72 h. Cell viability was then assayed (see above). IC50 values for each inhibitor and cell lines are shown below (Table 5). The results are based on 3 different experiments.

The test system of data set [2] is K562/Vcr30 chronic myeloid leukemia cells (cytostatic-resistant). As to the kind of experiment: Viability of leukemia cells, K562/Vcr30. In kind it is cell-based, human. The settings on record: K562/Vcr30, 72 h, read-out: IC50 for viability of leukemia cell lines. Here is the method:
as §2, §1, §3

The test system of data set [3] is HL60 acute myeloid leukemia cells. The experiment in a line: Viability of leukemia cells, HL60. It is filed as cell-based, human. As to conditions: HL60, 72 h, read-out: IC50 for viability of leukemia cell lines. How it is done:
as §2, §1, §3

Data set [4] has as its system HL60/Nov acute myeloid leukemia cells (cytostatic-resistant). As to the kind of experiment: Viability of leukemia cells, HL60/Nov. As to conditions: read-out: IC50 for viability of leukemia cell lines. It is filed as cell-based, human. How it is done:
as §2, §1, §3

For data set [5], the target named is T1, IGF-1R (Homo sapiens, UniProt P08069). The experiment in a line: IGF-1R phosphorylation/autophosphorylation in intact FM55 melanoma cells (immunoprecipitation, Western blotting, OD). In kind it is cell-based. Further details: The cells were then isolated and subjected to immuno-precipitation of the IGF-1R; endogenous in cells; host or cells: FM55 melanoma cells. As to conditions: for Level of IGF-1R phosphorylation in intact cells: OD, control cells = 100%. How it is done: The isolated cells were lyzed in 10 ml ice-cold PBSTDS containing protease inhibitors (Carlberg, M., et al., J Biol Chem 271:17453-17462, 1996). 50 μl protein A or G agarose was added in 1 ml sample and incubated for 15 min at 4° C. on an orbital shaker. After centrifugation for 10 min at 10,000 r/min at 4° C. the supernatant was saved. The protein content was determined by a dye-binding assay with a reagent purchased from Bio-Rad. Bovine serum albumin was used as a standard. 15 μl Protein G Plus agarose and 5 μl anti-IGF-1R were added. After a 3 h incubation at 4° C. on an orbital shaker the precipitate was collected by pulse centrifugation in a micro centrifuge at 14,000×g for 10 s. The supernatant was discarded and the pellet was washed 3 times with PBSTDS.
Protein samples were solved in a 2×-sample buffer containing Laemmli buffer and 0.5% […] and boiled for 5 min at 96° C. Samples were separated by SDS-PAGE with a 4% stacking gel and 7.5% separation gel. Molecular weight markers (Bio Rad, Sweden) were run simultaneously in all experiments.
Following SDS-PAGE the proteins were transferred overnight to nitro-cellulose membranes (Hybond, Amersham, UK) and then blocked for 1 h at room temperature in a solution of 4% skimmed milk powder and 0.02% Tween 20 in PBS, pH 7.5. Incubations with the primary antibodies were performed for 1 h at room temperature, followed by 3 washes with PBS with Tween and incubation with the second antibody for 1 h room temperature. After another 3 washes the membranes were incubated with Streptavidin-labelled horseradish peroxidase for 30 min and then detected using Amersham ECL system (Amersham, UK) The films were scanned by Fluor-S (BioRad).
Melanoma cells (line FM55) were seeded in 6-cm dishes, at a concentration of 10,000 cells/cm^2 in Minimal Essential Medium supplemented with 10% fetal calf serum (FCS). […] Treatment with 0 μM represents untreated controls. The cells were then isolated and subjected to immuno-precipitation of the IGF-1R. The immunoprecipitates, containing purified IGF-1R, were fractionated by gel electrophoresis. Phosphorylation of IGF-1R was detected by an anti-phosphotyrosine antibody using Western blotting. The obtained signals represent phosphorylated IGF-1R and the intensity of signals represents amounts of phosphorylated IGF-1R. Details of the methods used are described above. The intensities are quantified by a scanner, which measures the optical density (OD) of the signals. For the control cells the OD is set at 100%. The blank (OD 0%) represents the background. The results given in Table 1 below are mean values of 3 experiments.
FM 55 melanoma cells were cultured in the same way as described in Experiment 1. When reaching a density of 65,000 cells/cm^2 in the dishes, they were treated for 1 h with 0.05 μM podophyllotoxin, deoxypodophyllotoxin, acetylpodophyllotoxin, epipodophyllotoxin, 4′-demethyl-podophyllotoxin and podophyllotoxone. The cells were then harvested for assay and quantification of IGF-1R autophosphorylation as described above. The values shown in Table 2 represent means of 3 experiments.
Target sequence in this assay (P08069 31-1367): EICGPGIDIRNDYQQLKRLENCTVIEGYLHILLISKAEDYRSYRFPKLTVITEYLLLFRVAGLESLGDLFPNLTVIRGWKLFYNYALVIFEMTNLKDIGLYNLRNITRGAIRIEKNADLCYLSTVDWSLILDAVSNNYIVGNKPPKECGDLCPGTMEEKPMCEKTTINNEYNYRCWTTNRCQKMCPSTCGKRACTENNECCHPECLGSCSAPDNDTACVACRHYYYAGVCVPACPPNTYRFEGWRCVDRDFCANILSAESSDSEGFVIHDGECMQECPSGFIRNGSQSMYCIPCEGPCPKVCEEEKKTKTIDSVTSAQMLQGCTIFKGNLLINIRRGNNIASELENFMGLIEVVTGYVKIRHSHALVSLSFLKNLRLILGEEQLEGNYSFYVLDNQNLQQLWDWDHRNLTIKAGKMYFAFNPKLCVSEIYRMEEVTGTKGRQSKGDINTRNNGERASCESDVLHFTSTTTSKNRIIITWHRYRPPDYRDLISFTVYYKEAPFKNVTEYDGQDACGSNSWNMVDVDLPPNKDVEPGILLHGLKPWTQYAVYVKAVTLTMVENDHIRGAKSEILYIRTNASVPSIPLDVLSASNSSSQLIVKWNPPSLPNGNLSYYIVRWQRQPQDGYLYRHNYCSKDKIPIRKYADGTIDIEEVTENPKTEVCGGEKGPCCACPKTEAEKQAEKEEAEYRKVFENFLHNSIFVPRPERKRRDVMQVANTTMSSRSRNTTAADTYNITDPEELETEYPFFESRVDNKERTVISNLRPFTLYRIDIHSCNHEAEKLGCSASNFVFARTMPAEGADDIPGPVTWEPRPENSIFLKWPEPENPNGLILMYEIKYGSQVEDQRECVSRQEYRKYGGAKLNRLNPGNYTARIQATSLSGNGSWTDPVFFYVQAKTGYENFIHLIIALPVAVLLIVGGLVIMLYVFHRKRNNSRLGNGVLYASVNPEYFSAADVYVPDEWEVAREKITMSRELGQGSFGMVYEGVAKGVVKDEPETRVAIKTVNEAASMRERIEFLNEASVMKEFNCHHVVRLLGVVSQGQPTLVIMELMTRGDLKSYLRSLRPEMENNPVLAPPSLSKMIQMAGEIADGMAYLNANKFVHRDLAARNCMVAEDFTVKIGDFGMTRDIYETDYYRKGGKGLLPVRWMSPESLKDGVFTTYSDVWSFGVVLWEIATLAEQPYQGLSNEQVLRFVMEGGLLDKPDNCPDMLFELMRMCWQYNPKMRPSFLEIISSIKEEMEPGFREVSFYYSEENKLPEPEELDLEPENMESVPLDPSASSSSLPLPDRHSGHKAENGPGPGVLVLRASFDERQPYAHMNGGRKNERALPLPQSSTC
Background: Immunoblotting shows a protein as a band on a membrane.

Another data set relates to rats. The settings on record: cited from earlier work.
The test system of the next data set is SK-MEL-28 melanoma cells. The experiment in a line: Cell viability (XTT), SK-MEL-28. As to conditions: 48 h. It is filed as cell-based, human. How it is done:
as §1
(§4) 5 different types of cell lines were seeded in 96-well plates (medium volume in a well was 100 μl), at a concentration of 10,000 cells/cm^2 in Minimal Essential Medium supplemented with fetal calf serum. When the cells had reached a concentration of 65,000 cells/cm^2, they were treated with different doses of podophyllotoxin and deoxypodophyllotoxin for 48 h. Cell viability was then assayed (see above). […]
In general terms: Tetrazolium dyes change colour on reduction, which living cells bring about.

Data set [6] deals with MCF-7 breast cancer cells. As to the kind of experiment: Cell viability (XTT), MCF-7. As to conditions: 48 h. In kind it is cell-based, human. How it is done: as §1, §4
Another data set is described as follows: Water solubility. It is filed as physicochemical.
Another data set deals with microtubules. The settings on record: cell free systems; cited from earlier work.
The next data set deals with T2, IGF-1R beta-subunit (Homo sapiens, UniProt P08069).
T2 construct: host or cells: melanoma cells
As to conditions: melanoma cells, 15 microM; cited from earlier work.

For data set [7], the target named is T1, IGF-1R. The experiment in a line: Effect on IGF-1R (method not given).
Target sequence in this assay (P08069 31-1367, species assumed): as the sequence (P08069 31-1367) above
[8] abbreviates: FM55, Experiment 4 (Table 4), read-out: IC50 for viability of FM55 cells.
[9] abbreviates: FM55 cells, 0.05 μM, 1 h, podophyllotoxin = 1, mean of 3.
Setting [10] is: FM55 cells, 1 μM, 1 h, mean of 3.
Where [11] appears, read: FM55 cells, 15 μM, 1 h, mean of 3.
[12] abbreviates: FM55 cells, 60 μM, 1 h, mean of 3.

T2 sequence (P08069 31-1367): as above

Broadly, the IC50 is the concentration that gives 50% inhibition. In the case of `COc1cc([C@@H]2c3cc4c(cc3[C@H](O)[C@H]3COC(=O)[C@H]23)OCO4)cc(OC)c1O` [4′-demethylpodophyllotoxin], the IC50 in the data set on FM55 melanoma cells (setting [8]) was found to be 40 nM; in data set [1], 22 nM; in [2], 50 nM; in data set [3], 20 nM; in data set [4] (72 h), 18 nM. Besides, the “Inhibitory effect on IGF-1R autophosphorylation in intact cells in relation to podophyllotoxin, Relative potency” value (shortened to “Inhibitory effect … Relative potency”) at IGF-1R [5] (setting [9]) is on record as 0.5.

With `COc1cc([C@@H]2c3cc4c(cc3[C@H](OC(C)=O)[C@H]3COC(=O)[C@H]23)OCO4)cc(OC)c1OC` [Acetylpodophyllotoxin, acetylpodophyllotoxin], the IC50 in the data set on FM55 melanoma cells (setting [8]) stood at 30 nM; in [1], 80 nM; in [2] it was 140 nM; in [3], 48 nM; in data set [4] (72 h), 46 nM. In the data set on rats, the LD50 in rats is given as 185 mg/kg. Also, at IGF-1R [5], the “Inhibitory effect … Relative potency” value came out at 1.3. In addition, the “inhibition of IGF-1R phosphorylation (in words)” value against IGF-1R [5] (FM55 cells, 0.05 μM, 1 h) was “potent inhibitors”.

On to `COc1cc([C@@H]2c3cc4c(cc3C[C@H]3COC(=O)[C@@H]32)OCO4)cc(OC)c1OC` [Deoxypodophyllotoxin, deoxypodophyllotoxin], for which the half-inhibitory concentration (IC50) in the data set on SK-MEL-28 melanoma cells was 40 nM; with FM55 melanoma cells (setting [8]), 40 nM; with FM55 melanoma cells (FM55, melanoma, 48 h (Table 3), read-out: IC50 for cell viability), 40 nM; in data set [6], 30 nM; in data set [1], 3 nM; in data set [2] it was 4 nM. Also, the IC50 in data set [3] stood at 3 nM; in data set [4] (72 h) it was 2 nM. Moreover, the water solubility result in “Water solubility” was “about 0.01 mM”. Further, in the data set on rats (relative to podophyllotoxin), the “LD50 in rats, fold higher than podophyllotoxin” value is over 15 fold. The “inhibition of IGF-1R phosphorylation (in words)” value against IGF-1R [5] (FM55 cells, 0.05 μM, 1 h) is “potent inhibitors”. Moreover, the “Inhibitory effect … Relative potency” value at IGF-1R [5] (setting [9]) amounted to 0.8.

Regarding `COc1cc([C@@H]2c3cc4c(cc3[C@@H](O)[C@H]3COC(=O)[C@H]23)OCO4)cc(OC)c1OC` [Epipodophyllotoxin, epipodophyllotoxin], the IC50 in data set [1] (Homo sapiens) was 195 nM; in data set [2] (Homo sapiens), 450 nM; in data set [3] (Homo sapiens, HL-60), 127 nM; in data set [4] (Homo sapiens, HL-60, 72 h) it was 90 nM. In the data set on rats, the LD50 in rats is over 200 mg/kg. Further, the “Inhibitory effect … Relative potency” value at IGF-1R [5] (setting [9]) came out at 0.5.

Turning to `COc1cc([C@@H]2c3cc4c(cc3[C@@H](O[C@@H]3O[C@@H]5CO[C@@H](C)O[C@H]5[C@H](O)[C@H]3O)[C@H]3COC(=O)[C@H]23)OCO4)cc(OC)c1O` [Etoposide, etoposide], the effect on microtubules result with microtubules is on record as “no effect on microtubules”.

Regarding `O=c1c(-c2ccc(O)cc2)coc2cc(O)cc(O)c12` [Genistein, genistein], the “Level of IGF-1R phosphorylation in intact cells” value on IGF-1R [5] (setting [10]) amounted to 100%; on IGF-1R [5] (setting [11]), 96%; at IGF-1R [5] (setting [12]), 35%. The “effect on IGF-1R phosphorylation (in words)” value at IGF-1R [5] (FM55 cells, 1, 15, 60 μM, genistein statement at 60 μM) was “partial inhibitory effect”.

Regarding `COc1cc([C@@H]2c3cc4c(cc3C(=O)[C@H]3COC(=O)[C@H]23)OCO4)cc(OC)c1OC` [Podophyllotoxone, podophyllotoxone], the 50% inhibitory concentration (IC50) in data set [1], in data set [2], in [3] and in data set [4] (72 h) was over 500 nM in each case. Also, the “Inhibitory effect … Relative potency” value at IGF-1R [5] came out at 0.3.

Turning to `CC/C(=C(\c1ccccc1)c1ccc(OCCN(C)C)cc1)c1ccccc1` [Tamoxifen, tamoxifen], the “tyrosine phosphorylation of the IGF-1R beta-subunit” value at IGF-1R beta-subunit is reported as “efficiently blocked”. Besides, the “Level of IGF-1R phosphorylation in intact cells” value was determined as 95% at IGF-1R [5] (setting [10]), 20% on IGF-1R [5] (setting [11]) and 10% at IGF-1R [5] (setting [12]).

Consider `COc1cc(C2c3cc4c(cc3C(OC3OC5COC(c6ccccc6)OC5C(O)C3O)C3COC(=O)C23)OCO4)cc(OC)c1OC` [podophyllotoxin-4,6-O-benzylidene-β-D-glucopyranoside], for which, at IGF-1R [7], the “effect on IGF-1R / inhibition of IGF-1R activity (in words)” value is “completely disappeared”.
